# Assay results reported in patent publication US12285407B2, “Bis-indolylmethane derivatives and uses thereof” (The University of The West Indies, priority 2018, dated 2025).
# What was measured:
# [1] = system: Candida albicans ATCC 22972; assay: Broth microdilution MIC of SP-BIMs; assay type: cell-based; settings: ATCC22972, SP-BIM alone, read-out: MIC Candida albicans ATCC 22972
# [2] = system: Pseudomonas aeruginosa ATCC 27853; assay: Broth microdilution MIC of SP-BIMs; assay type: cell-based; settings: ATCC27853, SP-BIM alone, read-out: MIC Pseudomonas aeruginosa ATCC 27853
# [3] = system: Enterococcus faecium ATCC 19434; assay: Broth microdilution MIC of SP-BIMs; assay type: cell-based; settings: ATCC19434, SP-BIM alone, read-out: MIC Enterococcus faecium ATCC 19434
# [4] = system: Bacillus cereus ATCC 14579; assay: Broth microdilution MIC of SP-BIMs; assay type: cell-based; settings: ATCC14579, SP-BIM alone, read-out: MIC Bacillus cereus ATCC 14579
# [5] = system: sheep erythrocyte; assay: Hemotoxicity (hemolysis assay); assay type: cell-based; settings: 2% sheep erythrocyte solution; SP-BIMs 6, 11 and 18 at concentrations between 125-16 μg mL^−1
# Procedure: Hemotoxicity of the SP-BIMs were assessed following Wauford, “Hemolysis Assay”, protocols.io/view/hemolysis-assay-fxkbpkw (2016). Briefly, twofold serial dilutions of each test SP-BIM were added to 2% sheep erythrocyte solution and incubated for 30 minutes at 37° C. Samples were centrifuged at 2500 g for 5 minutes and the absorbance of the supernatants measured at 541 nm. Values were represented as percent hemolysis using freeze thaw cells as 100% lysis.
# [6] = system: Escherichia coli ATCC 35218; assay: Broth microdilution MIC of SP-BIMs; assay type: cell-based; settings: ATCC35218, SP-BIM alone, read-out: MIC Escherichia coli ATCC 35218
# [7] = system: Corynebacterium diphtheriae ATCC 27010; assay: Broth microdilution MIC of SP-BIMs; assay type: cell-based; settings: ATCC27010, SP-BIM alone, read-out: MIC Corynebacterium diphtheriae ATCC 27010
# [8] = system: Streptococcus pneumoniae; assay: Adjuvant broth microdilution (antibiotic MIC with SP-BIM at 50 μg/mL); assay type: cell-based; settings: Streptococcus pneumoniae, Streptococcus pneumonia, SP-BIM at 50 μg mL^−1
# [9] = system: Staphylococcus aureus ATCC 12600; assay: Broth microdilution MIC of SP-BIMs; assay type: cell-based; settings: ATCC12600, SP-BIM alone, read-out: MIC Staphylococcus aureus ATCC 12600
# [10] = system: Klebsiella pneumoniae ATCC 49472; assay: Broth microdilution MIC of SP-BIMs; assay type: cell-based; settings: ATCC49472, SP-BIM alone, read-out: MIC Klebisella pneumoniae ATCC 49472
# [11] = system: Streptococcus pyogenes ATCC 19615; assay: Broth microdilution MIC of SP-BIMs; assay type: cell-based; settings: ATCC19615, SP-BIM alone, read-out: MIC Streptococcus pyogenes ATCC 19615
# [12] = system: Gram-negative bacteria; assay: Adjuvant broth microdilution; assay type: cell-based; settings: SP-BIM at 50 μg mL^−1
# Procedure: To each well, the SP-BIM to be tested was added to a final concentration of 50 μg mL^−1. […] SP-BIMs were assessed as potential adjuvants based on their ability to reduce the MIC of the antibiotic against respective pathogen.
# [13] = system: Salmonella typhimurium ATCC 14028; assay: Broth microdilution MIC of SP-BIMs; assay type: cell-based; settings: Salmonella enterica, read-out: MIC Salmonella tvpkimurium ATCC 14028
# Description: Reference microorganisms used in this study included: Bacillus cereus (American Type Culture Collection (ATCC) No. 14579), Streptococcus pyogenes (ATCC No. 19615), Staphylococcus aureus (ATCC No. 12600), Enterococcus faecium (ATCC No. 19434), Corynebacterium diphtheriae (ATCC No. 27010), Escherichia coli (ATCC No. 35218), Salmonella typhimurium (ATCC No. 14028), Pseudomonas aeruginosa (ATCC No. 27853), Klebsiella pneumoniae (ATCC No. 49472), and Candida albicans (ATCC No. 22972).
# Prior to each experiment, cultures were streaked onto clean BHI agar plates and incubated at 35° C. for 24 hours. Colonies of the respective cultures were selected and inoculated in phosphate buffer saline (pH 7.5) to a 0.5 McFarland turbidity standard (equivalent to 10^8 CFU mL^−1). The bacterial suspension was then diluted 1:100 in cation adjusted Mueller Hinton Broth (ca-MHB) (Oxoid Ltd, Basingstoke, Hampshire, England).
# Stock solutions (50 mg mL^−1) of the SP-BIM test compounds were prepared in DMSO and stored at 4° C. Working preparations of each compound was made up to 1 mg/mL in sterile deionized water with a final DMSO concentration of 10%.
# To assess the antibiotic properties of the library of SP-BIMs, the broth microdilution assay was performed in 96-well microplates according to the Clinical and Laboratory Standards Institute 2014 Guidelines (CLSI 2014). The broth microdilution assay was used to determine the minimum inhibitory concentration (MIC). […] Bacterial cells (˜10^6 CFU mL^−1) were inoculated into cation adjusted-Mueller Hinton broth containing the test compound in a twofold serial dilution ranging between 250 μg mL^−1 and 0.02 μg mL^−1. Plates were incubated at 35° C. for 18 hours after which 50 μL of 5% resazurin solution was added to each well. Resazurin is a blue dye which, upon reduction by living cells, turns to a pink resorufin product. Plates were shaken for 1 hour after the addition of the dye. The MIC was recorded as the well with the lowest concentration of test compound where no color change was observed.
# [14] = system: Klebsiella pneumoniae; assay: Checkerboard synergy (FICI) of antibiotics with SP-BIM; assay type: cell-based; settings: SP-BIM 9 alone, one value per antibiotic's checkerboard, read-out: MIC SP-BIM 9 only
# [15] = system: Staphylococcus aureus; assay: as above; assay type: cell-based
# [16] = system: MRSA HS 10132; assay: Systemic non-lethal MRSA infection in mice (organ MRSA load); assay type: in vivo
# [17] = system: Bacillus cereus; assay: Checkerboard synergy (FICI) of antibiotics with SP-BIM; assay type: cell-based; settings: SP-BIM 9 alone, one value per antibiotic's checkerboard, read-out: MIC SP-BIM 9 only
# [18] = system: Streptococcus pneumoniae; assay: as above; assay type: cell-based; settings: Streptococcus pneumoniae
# [19] = system: Escherichia coli; assay: as above; settings: read-out: MIC SP-BIM 9 only, Escherichia coli, SP-BIM 9 alone, one value per antibiotic's checkerboard
# [20] = system: reference pathogen strains; assay: Checkerboard synergy study, summary over pathogens; assay type: cell-based; settings: Gram-positive pathogens
# [21] = system: Enterococcus faecium; assay: Checkerboard synergy (FICI) of antibiotics with SP-BIM; assay type: cell-based
# [22] = system: Pseudomonas aeruginosa; assay: Rescue concentrations of SP-BIM that reactivate antibiotic; assay type: cell-based; settings: P. aeruginosa
# [23] = read-out: MIC of Kanamvcin with SP-BIM
# [24] = read-out: MIC of Vancomvcin with SP-BIM
# [25] = MRSA, checkerboard with SP-BIM 9
# [26] = ampicillin and SP-BIM 9 at 5 mg kg^−1
# [27] = ampicillin and SP-BIM 9 at 10 mg kg^−1
structure (smiles),measurement,setting,value
"O=Cc1cccc(C(c2c[nH]c3ccccc23)c2c[nH]c3ccccc23)c1 [SP-BIM 6, 3-(di(1H-indol-3-yl)methyl)benzaldehyde]",MIC,[1],250 µg/mL
same,MIC,[2],250 µg/mL
same,MIC,[3],> 250 µg/mL
same,MIC,[4],> 250 µg/mL
same,hemotoxicity,[5],very hemotoxic
same,MIC,[6],> 250 µg/mL
same,MIC,[7],> 250 µg/mL
same,MIC,[8]; [23],4 µg/mL
same,MIC,[8]; [24],0.5 µg/mL
same,MIC,[9],> 250 µg/mL
same,MIC,[10],> 250 µg/mL
same,MIC,[11],> 250 µg/mL
same,potentiating activity for Gram-negative bacteria,[12],No potentiating activity was observed
same,MIC,[13],250 µg/mL
"Oc1cccc(C(c2c[nH]c3ccccc23)c2c[nH]c3ccccc23)c1 [SP-BIM 9, 3-(di(1H-indol-3-yl)methyl)phenol]",MIC,[14],≥ 250 µg/mL
same,MIC,[1],250 µg/mL
same,MIC of aztreonam in combination with 32 μg mL^−1 of SP-BIM 9,"[15]; MRSA, checkerboard",8 µg/mL
same,effect on MIC of trimethoprim,[15]; [25],an increase in the MIC was observed
same,reduction of MICs of all the antibiotics except trimethoprim,[15]; [25],at least 4 fold
same,MIC,"[15]; Staphylococcus aureus, SP-BIM 9 alone, one value per antibiotic's checkerboard, read-out: MIC SP-BIM 9 only",> 250 µg/mL
same,MIC,[2],250 µg/mL
same,MIC,[3],> 250 µg/mL
same,MRSA counts in the liver,[16]; SP-BIM 9 only 5 mg kg^−1,3911 CFU g^−1
same,MRSA load in the spleen,[16]; SP-BIM 9 only 5 mg kg^−1,7327 CFU g^−1
same,MRSA counts in the liver,[16]; SP-BIM 9 only 10 mg kg^−1,2861 CFU g^−1
same,MRSA load in the spleen,[16]; SP-BIM 9 only 10 mg kg^−1,5800 CFU g^−1
same,MRSA counts in the liver,[16]; [26],167 CFU g^−1
same,MRSA load in the spleen,[16]; [26],288 CFU g^−1
same,MRSA counts in the liver,[16]; [27],189 CFU g^−1
same,MRSA load in the spleen,[16]; [27],211 CFU g^−1
same,MIC,[4],> 250 µg/mL
same,MIC,[6],> 250 µg/mL
same,MIC,[17],> 250 µg/mL
same,MIC,[7],> 250 µg/mL
same,MIC,[8]; [23],4 µg/mL
same,MIC,[8]; [24],0.2 µg/mL
same,MIC,[9],> 250 µg/mL
same,MIC,"[18]; Streptococcus pneumonia (title: Streptococcus pyogenes), SP-BIM 9 alone, one value per antibiotic's checkerboard, read-out: MIC SP-BIM 9 only",> 250 µg/mL
same,effect on MIC of erythromycin,[18]; checkerboard with SP-BIM 9,no effect was observed
same,lowering of the MIC of the antibiotics,[18]; checkerboard with SP-BIM 9,at least 4 fold
same,MIC,[10],> 250 µg/mL
same,MIC,[11],> 250 µg/mL
same,MIC,[19],≥ 250 µg/mL
same,FICI with most of the antibiotics,[20],≤ 0.5
same,MIC,[13],250 µg/mL
same,MIC of vancomycin with 63 μg mL^−1 SP-BIM 9,[21]; Enterococcus faecium strain highly resistant to vancomycin,reduced to susceptible levels
same,MIC,"[21]; Enterococcus faecium, SP-BIM 9 alone, one value per antibiotic's checkerboard, read-out: MIC SP-BIM 9 only",≥ 250 µg/mL
"Nc1ccc(C(c2c[nH]c3ccccc23)c2c[nH]c3ccccc23)cc1 [SP-BIM 10, 4-(di(1H-indol-3-yl)methyl)aniline]",MIC,[1],250 µg/mL
same,MIC,[2],250 µg/mL
same,MIC,[3],> 250 µg/mL
same,MIC,[4],> 250 µg/mL
same,MIC,[6],> 250 µg/mL
same,MIC,[7],> 250 µg/mL
same,MIC,[8]; [23],4 µg/mL
same,MIC,[8]; [24],0.5 µg/mL
same,MIC,[9],> 250 µg/mL
same,MIC,[10],> 250 µg/mL
same,MIC,[11],> 250 µg/mL
same,potentiating activity for Gram-negative bacteria,[12],No potentiating activity was observed
same,MIC,[13],250 µg/mL
"Oc1ccccc1C(c1c[nH]c2ccccc12)c1c[nH]c2ccccc12 [SP-BIM 11, bis(indol-3-yl)-2-hydroxyphenylmethane]",MIC,[1],250 µg/mL
same,MIC,[2],250 µg/mL
same,MIC,[3],> 250 µg/mL
same,MIC,[4],> 250 µg/mL
same,hemotoxicity,[5],very hemotoxic
same,MIC,[6],> 250 µg/mL
same,MIC,[7],> 250 µg/mL
same,MIC,[8]; [23],125 µg/mL
same,MIC,[8]; [24],1 µg/mL
same,MIC,[9],> 250 µg/mL
same,MIC,[10],> 250 µg/mL
same,MIC,[11],> 250 µg/mL
same,MIC,[13],250 µg/mL
"Oc1cc(Br)ccc1C(c1c[nH]c2ccccc12)c1c[nH]c2ccccc12 [SP-BIM 15, 5-bromo-2-(di(1H-indol-3-yl)methyl)phenol]",MIC,[1],250 µg/mL
same,MIC,[2],250 µg/mL
same,MIC,[3],125 µg/mL
same,MIC,[4],125 µg/mL
same,MIC,[6],> 250 µg/mL
same,MIC,[7],> 250 µg/mL
same,MIC,[8]; [23],4 µg/mL
same,MIC,[8]; [24],0.2 µg/mL
same,MIC,[9],> 250 µg/mL
same,MIC,[10],> 250 µg/mL
same,MIC,[11],125 µg/mL
same,potentiating activity for Gram-negative bacteria,[12],No potentiating activity was observed
same,MIC,[13],250 µg/mL
"COc1ccc(C(c2c[nH]c3ccccc23)c2c[nH]c3ccccc23)cc1 [SP-BIM 18, bis(indol-3-yl)-4-methoxyphenylmethane]",MIC,[1],250 µg/mL
same,MIC,[2],250 µg/mL
same,MIC,[3],> 250 µg/mL
same,MIC,[4],> 250 µg/mL
same,hemotoxicity,[5],very hemotoxic
same,MIC,[6],> 250 µg/mL
same,MIC,[7],> 250 µg/mL
same,MIC,[8]; [23],125 µg/mL
same,MIC,[8]; [24],1 µg/mL
same,MIC,[9],> 250 µg/mL
same,MIC,[10],> 250 µg/mL
same,MIC,[11],> 250 µg/mL
same,MIC,[13],250 µg/mL
"Oc1ccc2c(C(c3ccc(Br)cc3)c3c[nH]c4cc(O)ccc34)c[nH]c2c1 [SP-BIM 23, 3,3′-((4-bromophenyl)methylene)bis(1H-indol-6-ol)]",MIC of chloramphenicol in combination with 64 μg/mL SP-BIM 23,[22],4 µg/mL
same,MIC,"[22]; Pseudomonas aeruginosa, agent alone, read-out: MIC (single agent)",> 250 µg/mL
